Data reported in US11135320B2, “Radioligands for pretargeted pet imaging and methods of their therapeutic use” (priority 2015, dated 2021).
Values joined by “and” are separate entries in the source; they are usually repeats but may differ in a detail not shown here. Equal entries are not always repeated.

Experiment: Dosimetry calculations (OLINDA) for huA33-based PET imaging strategies
Design: species or system human (70-kg Standard Man model, from mouse biodistribution)
Conditions: pretargeting
Procedure: The radiation dosimetry of ^64Cu-Tz-SarAr was performed to ensure the selective delivery of radioisotopes to malignant tissues at radiation doses below the doses of traditional radioimmunoconjugates. To this end, dosimetry calculations were performed using the biodistribution data collected and the OLINDA computer program to determine the mean organ absorbed doses (rad/mCi) and effective dose (rem/mCi) for each strategy (Table 23). The total effective dose of the ^64Cu-Tz-SarAr pretargeting strategy with a 24 h interval period was 0.041 rem/mCi, a slight reduction compared to the 0.046 rem/mCi effective dose created by ^64Cu-Tz-NOTA. This difference was due to the significant reduction in the mean organ absorbed dose to the large intestine. Moreover, the total effective dose of the ^64Cu-Tz-SarAr pretargeting strategy was inversely proportional to the duration of the accumulation interval. For example, the effective dose decreased from 0.041 rem/mCi with a 24 h interval to 0.038 rem/mCi with a 48 h interval to 0.034 with a 120 h interval.
Mouse biodistribution data were expressed as normal-organ mean standard uptake values (SUVs) versus time post-administration. In first order, that SUVs were independent of body mass and thus the same among species, the mean SUV in mouse organ i, SUVOrgan i|Mouse, was converted to the fraction of the injected dose in each human organ I, FIDOrgan I|Human, using the following formula:
[formula] and the organ and total-body masses of the 70-kg Standard Man anatomic model. […] The cumulated activity, or residence time, in human organ i, μCi, in μCi h/μCi, was then calculated by analytically integrating the time-activity function in organ i, replacing the biological clearance constant, (λbλj, for each component j of the fitted exponential function with the corresponding effective clearance constant, (λeλj=(λbλj+λp, where λp is the physical decay constant of the radionuclide. The resulting organ residence times were entered into the OLINDA computer program to yield the mean organ absorbed doses and effective dose in rad/mCi and rem/mCi, respectively. Statistical Analysis

NC12CNCCNCC(NCc3ccc(CNC(=O)CCCC(=O)NCc4ccc(-c5nncnn5)cc4)cc3)(CNCCNC1)CNCCNC2.[64Cu+2] [^64Cu-Tz-SarAr]
Brain absorbed dose (24 h interval): 0.0361 rad/mCi
Breasts absorbed dose (24 h interval): 0.0323 rad/mCi
Effective Dose (24 h interval): 0.041 rem/mCi and 0.0414 rem/mCi
Heart Wall absorbed dose (24 h interval): 0.0427 rad/mCi
Kidneys absorbed dose (24 h interval): 0.0661 rad/mCi
Lower Lg. Int. Wall absorbed dose (24 h interval): 0.0482 rad/mCi
Osteogenic Cells absorbed dose (24 h interval): 0.0893 rad/mCi
Ovaries absorbed dose (24 h interval): 0.0401 rad/mCi
Pancreas absorbed dose (24 h interval): 0.0395 rad/mCi
Skin absorbed dose (24 h interval): 0.0297 rad/mCi
Small Intestine absorbed dose (24 h interval): 0.0418 rad/mCi
Spleen absorbed dose (24 h interval): 0.0370 rad/mCi
Stomach Wall absorbed dose (24 h interval): 0.0552 rad/mCi
Testes absorbed dose (24 h interval): 0.0345 rad/mCi
Thymus absorbed dose (24 h interval): 0.0349 rad/mCi
Upper Lg. Int. Wall absorbed dose (24 h interval): 0.0409 rad/mCi
Uterus absorbed dose (24 h interval): 0.0410 rad/mCi
Effective Dose (48 h interval): 0.038 rem/mCi and 0.0377 rem/mCi
Kidneys absorbed dose (48 h interval): 0.0539 rad/mCi
Pancreas absorbed dose (48 h interval): 0.0364 rad/mCi
Spleen absorbed dose (48 h interval): 0.0205 rad/mCi
Stomach Wall absorbed dose (48 h interval): 0.0422 rad/mCi
Uterus absorbed dose (48 h interval): 0.0383 rad/mCi
Effective Dose (120 h interval): 0.034 rem/mCi and 0.0341 rem/mCi
Heart Wall absorbed dose (120 h interval): 0.0330 rad/mCi
Kidneys absorbed dose (120 h interval): 0.0566 rad/mCi
Lungs absorbed dose (120 h interval): 0.0216 rad/mCi
Osteogenic Cells absorbed dose (120 h interval): 0.0720 rad/mCi
Spleen absorbed dose (120 h interval): 0.0225 rad/mCi
